Measurements: ChEMBL document CHEMBL4007489, “First Bispecific Inhibitors of the Epidermal Growth Factor Receptor Kinase and the NF-κB Activity As Novel Anticancer Agents” (J Med Chem, 2017)

How the values were obtained:
[1] = molecular target: T1, Epidermal growth factor receptor (Homo sapiens, UniProt P00533); assay: biochemical; format: cell-based
[2] = molecular target: T1, Epidermal growth factor receptor; conditions: at 150 nM
Homo sapiens [3] = organism: Homo sapiens; assay: Inhibition of TNFalpha-stimulated NF-kappaB (unknown origin) expressed in human U937 cells at 5 uM incubated for 3 hrs followed by TNFalpha stimulation measured after 2.5 hrs by luciferase reporter gene assay; format: cell-based
cells = format: cell-based; conditions: Homo sapiens, U-937
Description: Inhibition of TNFalpha-stimulated NF-kappaB (unknown origin) expressed in human U937 cells incubated for 3 hrs followed by TNFalpha stimulation measured after 2.5 hrs by luciferase reporter gene assay

Homo sapiens [4] = organism: Homo sapiens; conditions: at 10 µM;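 also: luciferase reporter readout of NF-kappaB activity in human U937 cells, compound added 3 h before TNFalpha stimulation, signal read 2.5 h after stimulation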
Description: Inhibition of TNFalpha-stimulated NF-kappaB (unknown origin) expressed in human U937 cells at 10 uM incubated for 3 hrs followed by TNFalpha stimulation measured after 2.5 hrs by luciferase reporter gene assay

MDA-MB-231 = assay: cells; format: functional; conditions: Homo sapiens, MDA-MB-231, 48 h
Description: Growth inhibition of human MDA-MB-231 cells after 48 hrs by MTT assay

T1 sequence (P00533 whole entry): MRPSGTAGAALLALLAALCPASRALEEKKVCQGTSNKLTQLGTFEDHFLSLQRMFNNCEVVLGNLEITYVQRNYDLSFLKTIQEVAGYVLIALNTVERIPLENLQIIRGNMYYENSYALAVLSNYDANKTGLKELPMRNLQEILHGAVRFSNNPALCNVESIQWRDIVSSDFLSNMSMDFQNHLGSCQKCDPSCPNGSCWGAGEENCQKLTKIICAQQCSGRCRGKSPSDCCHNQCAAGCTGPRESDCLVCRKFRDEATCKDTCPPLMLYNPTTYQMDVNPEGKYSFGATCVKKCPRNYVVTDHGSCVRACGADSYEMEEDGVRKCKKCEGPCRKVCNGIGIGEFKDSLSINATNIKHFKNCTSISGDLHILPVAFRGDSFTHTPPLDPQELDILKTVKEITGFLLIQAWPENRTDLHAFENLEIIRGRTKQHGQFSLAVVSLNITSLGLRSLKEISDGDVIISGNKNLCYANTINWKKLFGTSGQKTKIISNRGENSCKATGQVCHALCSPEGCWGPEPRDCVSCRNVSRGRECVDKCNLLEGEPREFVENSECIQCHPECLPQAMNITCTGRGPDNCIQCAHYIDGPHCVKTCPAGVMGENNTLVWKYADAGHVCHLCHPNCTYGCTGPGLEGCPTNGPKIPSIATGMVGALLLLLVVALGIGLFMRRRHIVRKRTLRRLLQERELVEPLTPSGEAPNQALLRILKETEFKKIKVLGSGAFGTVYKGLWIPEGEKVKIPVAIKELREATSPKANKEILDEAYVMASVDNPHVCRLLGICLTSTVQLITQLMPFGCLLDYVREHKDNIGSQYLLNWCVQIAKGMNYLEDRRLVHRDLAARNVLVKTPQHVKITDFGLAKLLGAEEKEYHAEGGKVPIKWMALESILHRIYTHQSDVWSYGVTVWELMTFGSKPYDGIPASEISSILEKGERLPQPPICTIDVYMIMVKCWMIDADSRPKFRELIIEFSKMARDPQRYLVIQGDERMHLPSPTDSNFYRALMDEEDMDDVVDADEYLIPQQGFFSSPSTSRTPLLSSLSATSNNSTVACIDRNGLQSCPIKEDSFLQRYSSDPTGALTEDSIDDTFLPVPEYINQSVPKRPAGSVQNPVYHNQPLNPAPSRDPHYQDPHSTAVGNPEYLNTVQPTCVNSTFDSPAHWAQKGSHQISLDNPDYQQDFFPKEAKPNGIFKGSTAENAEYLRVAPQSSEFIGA

Row | SMILES | IC50 [1] | inhibition [2] | inhibition (Homo sapiens [3]) | IC50 (cells) | inhibition (Homo sapiens [4]) | GI50 (MDA-MB-231)
1 | Cc1nnc(NC(=S)Nc2ccc3ncnc(Nc4cccc(Cl)c4)c3c2)s1 | 0.12 µM | 70.8% | 76.1% | 1.2 µM | – | –
2 | CC(C)(C)c1ccc(Nc2ncnc3ccc(NC(=S)NCc4ccccc4)cc23)cc1 | > 0.15 µM | 0.9% | – | 5.51 µM | 91.9% | 8.7 µM
3 | S=C(Nc1cccnc1)Nc1ccc2ncnc(Nc3cccc(Br)c3)c2c1 | 0.0102 µM | 90.4% | – | – | 42.4% | > 30 µM
4 | S=C(NCc1ccccc1)Nc1ccc2ncnc(Nc3cccnc3)c2c1 | > 0.15 µM | 38.5% | – | – | 7.7% | 17.9 µM
5 | Oc1ccc(Nc2ncnc3ccc(NC(=S)NCc4ccccc4)cc23)cc1 | > 0.15 µM | 44.1% | – | – | 24.1% | 27 µM
6 | Cc1cccc(Nc2ncnc3ccc(NC(=S)NCc4ccccc4)cc23)c1C | > 0.15 µM | 40% | – | – | 71.5% | 28.7 µM
7 | O=C(NCc1ccccc1)Nc1ccc2ncnc(Nc3cccc(Br)c3)c2c1 | 0.0089 µM | 89.9% | – | – | 42.6% | > 30 µM
8 | S=C(Nc1ccc(Cl)cc1)Nc1ccc2ncnc(Nc3cccc(Br)c3)c2c1 | 0.0195 µM | 79.6% | – | 4.9 µM | 89.5% | 8.2 µM
9 | O=S(=O)(Nc1nccs1)c1ccc(NC(=S)Nc2ccc3ncnc(Nc4cccc(Br)c4)c3c2)cc1 | 0.022 µM | 81.7% | – | – | 16.5% | > 30 µM
10 | S=C(Nc1ccccc1)Nc1ccc2ncnc(Nc3cccc(Br)c3)c2c1 | 0.0158 µM | 86.5% | – | 5.2 µM | 90.7% | 10 µM
11 | Oc1ccc(NC(=S)Nc2ccc3ncnc(Nc4cccc(Br)c4)c3c2)cc1 | 0.0089 µM | 91.5% | – | 6.4 µM | 85.3% | 17.3 µM
12 | N=C(N)NS(=O)(=O)c1ccc(Nc2ncnc3ccc(NC(=S)NCc4ccccc4)cc23)cc1 | > 0.15 µM | 6.7% | – | – | 21.7% | > 30 µM
13 | FC(F)(F)c1cccc(NC(=S)Nc2ccc3ncnc(Nc4cccc(Br)c4)c3c2)c1 | 0.0607 µM | 57.5% | – | 1 µM | 96.5% | 1.4 µM
14 | S=C(NCCN1CCOCC1)Nc1ccc2ncnc(Nc3cccc(Br)c3)c2c1 | 0.0107 µM | 91.8% | – | – | 20.9% | > 30 µM
15 | O=S(=O)(Nc1ccccn1)c1ccc(Nc2ncnc3ccc(NC(=S)NCc4ccccc4)cc23)cc1 | > 0.15 µM | 20.9% | – | – | 6.6% | > 30 µM
16 | O=C(Nc1ccc2ncnc(Nc3cccc(Br)c3)c2c1)c1ccco1 | 0.0084 µM | – | – | – | 39.4% | –
17 | FC(F)(F)c1cc(NC(=S)Nc2ccc3ncnc(Nc4cccc(Br)c4)c3c2)ccc1Cl | > 0.15 µM | 44% | – | 1.7 µM | 99% | 1.1 µM
18 | S=C(Nc1ccc2ncnc(Nc3cccc(Br)c3)c2c1)Nc1ccccc1Cl | 0.0158 µM | 84.3% | – | 3.5 µM | 95.8% | 8.5 µM
19 | COc1ccc(C(=O)Nc2ccc3ncnc(Nc4cccc(Br)c4)c3c2)cc1 | – | – | – | – | 33.2% | –
20 | C=CC(=O)Nc1ccc2ncnc(Nc3ccc(Br)cc3F)c2c1 | 0.0021 µM | – | – | – | 73.6% | –
21 | S=C(Nc1ccc(Br)cc1)Nc1ccc2ncnc(Nc3cccc(Br)c3)c2c1 | 0.0354 µM | 70.4% | – | 2 µM | 96.7% | > 30 µM
22 | S=C(Nc1ccc2ncnc(Nc3cccc(Br)c3)c2c1)N1CCOCC1 | 0.0269 µM | 84% | – | – | 40.1% | > 30 µM
23 | S=C(Nc1ccc2ncnc(Nc3cccc(Br)c3)c2c1)Nc1ccc(Cl)cc1Cl | 0.0489 µM | 66% | – | 2.9 µM | 93.1% | 12.2 µM

Row | SMILES | IC50 [1] | inhibition [2] | inhibition (Homo sapiens [3]) | IC50 (cells) | inhibition (Homo sapiens [4]) | GI50 (MDA-MB-231)
24 | S=C(Nc1cc(Cl)cc(Cl)c1)Nc1ccc2ncnc(Nc3cccc(Br)c3)c2c1 | 0.146 µM | 50.9% | – | 1.8 µM | 99.6% | 3 µM
25 | S=C(NCc1ccc(Cl)cc1)Nc1ccc2ncnc(Nc3cccc(Br)c3)c2c1 | 0.0283 µM | 77.5% | – | – | 78.6% | 23 µM
26 | S=C(Nc1cncc(Cl)c1)Nc1ccc2ncnc(Nc3cccc(Cl)c3)c2c1 | 0.0555 µM | 85% | 78% | 3 µM | – | –
27 | Cc1cccc(Nc2ncnc3ccc(NC(=S)NCc4ccccc4)cc23)c1 | 0.0368 µM | 68.5% | – | – | 76.4% | 19.5 µM
28 | Oc1cccc(Nc2ncnc3ccc(NC(=S)NCc4ccccc4)cc23)c1 | 0.0636 µM | 60.8% | – | – | 44.3% | > 30 µM
29 | C=CC(=O)Nc1ccc2ncnc(Nc3cccc(C)c3F)c2c1 | 0.0015 µM | – | – | – | 70% | –
30 | FC(F)(F)c1ccc(NC(=S)Nc2ccc3ncnc(Nc4cccc(Br)c4)c3c2)cc1 | > 0.15 µM | 38.1% | – | 1.7 µM | 94.8% | 12.2 µM
31 | CNC(=S)Nc1ccc2ncnc(Nc3cccc(Br)c3)c2c1 | 0.0091 µM | 92.2% | – | – | 3% | > 30 µM
32 | FC(F)(F)c1nnc(NC(=S)Nc2ccc3ncnc(Nc4cccc(Cl)c4)c3c2)s1 | 0.13 µM | 70.7% | 80.5% | 1 µM | – | –
33 | NS(=O)(=O)c1ccc(NC(=S)Nc2ccc3ncnc(Nc4cccc(Br)c4)c3c2)cc1 | 0.0095 µM | 92.3% | – | – | 29% | > 30 µM
34 | S=C(NCc1ccccc1)Nc1ccc2ncnc(Nc3ccc(Br)cc3)c2c1 | > 0.15 µM | 47.7% | – | 3.8 µM | 92.1% | 15.1 µM
35 | S=C(NCc1ccccc1)Nc1ccc2ncnc(Nc3cccc(Cl)c3)c2c1 | – | – | – | 3.7 µM | 89.7% | 7.3 µM
36 | CCc1cccc(Nc2ncnc3ccc(NC(=S)NCc4ccccc4)cc23)c1 | > 0.15 µM | 41.7% | – | 4.8 µM | 92.5% | 10.5 µM
37 | NS(=O)(=O)c1ccc(Nc2ncnc3ccc(NC(=S)NCc4ccccc4)cc23)cc1 | > 0.15 µM | 17.7% | – | – | 19.2% | > 30 µM
38 | S=C(Nc1ccc(Cl)c(Cl)c1)Nc1ccc2ncnc(Nc3cccc(Br)c3)c2c1 | 0.133 µM | 52.9% | – | 1.9 µM | 97.2% | 4.8 µM
39 | S=C(NCc1ccccc1)Nc1ccc2ncnc(Nc3ccc(Oc4ccccc4)cc3)c2c1 | > 0.15 µM | 21.9% | – | – | 73.7% | 6.8 µM
40 | CC(C)c1ccc(Nc2ncnc3ccc(NC(=S)NCc4ccccc4)cc23)cc1 | > 0.15 µM | 4.2% | – | 4.3 µM | 95.7% | 12.8 µM
41 | S=C(NCc1ccccc1)Nc1ccc2ncnc(Nc3ccccc3Br)c2c1 | > 0.15 µM | 13.1% | – | 6.5 µM | 85.7% | > 30 µM
42 | FC(F)(F)c1cc(NC(=S)Nc2ccc3ncnc(Nc4cccc(Br)c4)c3c2)cc(C(F)(F)F)c1 | > 0.15 µM | 32.3% | – | 1.9 µM | 100% | 0.8 µM
43 | Fc1c(NC(=S)Nc2ccc3ncnc(Nc4cccc(Br)c4)c3c2)cccc1C(F)(F)F | – | – | – | 1.3 µM | 98% | 0.4 µM
44 | S=C(NCc1ccccc1)Nc1ccc2ncnc(Nc3ccc(-c4ccccc4)cc3)c2c1 | > 0.15 µM | 14.5% | – | 4.4 µM | 89.1% | 8.4 µM
45 | O=C(Nc1ccc(Cl)cc1)Nc1ccc2ncnc(Nc3cccc(Br)c3)c2c1 | 0.0193 µM | 69% | – | – | 50.3% | 10 µM
46 | Fc1ccc(NC(=S)Nc2ccc3ncnc(Nc4cccc(Cl)c4)c3c2)cc1F | – | 44.4% | 37.6% | – | – | –
